Experimental data published in patent publication US20080274892A1, “Novel Haloalkylsulfonanilide Derivative, Herbicide, and Method of Use Thereof” (priority 2005, published 2008).

How the values were obtained:
bulrush [1] = assay: Test Example 1: herbicidal efficacy on rice paddy weeds pre-emergence; format: in vivo, Scirpus juncoides; conditions: dosage 1000 g/ha, 21 days
false pimpernel [2] = assay: as above; format: in vivo, Lindernia pyxidaria; conditions: dosage 1000 g/ha, 21 days
barnyard glass = assay: Test Example 2: herbicidal efficacy on rice paddy weeds post-emergence; format: in vivo, Echinochloa crus-galli; conditions: dosage 1000 g/ha; post-emergence, one leaf stage; 21 days after treatment
Procedure, shortened: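 Plastic pots of 75 cm^2 were filled with clay loam soil and sown with barnyard glass and bulrush seeds, then topped with 75 cm^3 soil containing false pimpernel seeds. The pots were flooded to 5 cm water depth and held in a hot house. Twenty-one days after treatment, herbicidal efficacy was graded against an untreated control.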

[3] = tested on: paddy rice plant (cultivar: Nihonbare); assay: Test Example 3: phytotoxicity test for transplanted paddy rice plant; format: in vivo; conditions: dosage 1000 g/ha; transplanted rice, treated 5 days after transplantation; 21 days after treatment
Procedure, shortened: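 Clay loam soil was placed in a 75 cm^2 plastic pot and flooded to a water depth of 5 cm. Two Nihonbare paddy rice plants at the two-leaf stage were transplanted 1 cm deep and grown in a hot house. After treatment, pots stayed in the hot house for 21 days, and phytotoxicity was then graded against an untreated control.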

false pimpernel [4] = assay: Test Example 2: herbicidal efficacy on rice paddy weeds post-emergence; format: in vivo, Lindernia pyxidaria; conditions: dosage 1000 g/ha; post-emergence, one leaf stage; 21 days after treatment
bulrush [5] = assay: as above; format: in vivo, Scirpus juncoides; conditions: dosage 1000 g/ha; post-emergence, one leaf stage; 21 days after treatment

| Compound | Bulrush pre (herbicidal efficacy grade) (bulrush [1]) | False pimpernel pre (herbicidal efficacy grade) (false pimpernel [2]) | Burnyard grass post (herbicidal efficacy grade) (barnyard glass) | Phytotoxicity to paddy rice [3] | False pimpernel post (herbicidal efficacy grade) (false pimpernel [4]) | Bulrush post (herbicidal efficacy grade) (bulrush [5]) |
| --- | --- | --- | --- | --- | --- | --- |
| CC(C)COC(=O)N(c1ccccc1CN1CC(C)(COCc2ccccc2)OC1=O)S(=O)(=O)C(F)(F)F (stereo not drawn) [Compound 1-174] | 4 (90%-100% of herbicidal efficacy or phytotoxicity) | 4 (90%-100% of herbicidal efficacy or phytotoxicity) | 4 (90%-100% of herbicidal efficacy or phytotoxicity) | 1 (1%-39% of herbicidal efficacy or phytotoxicity) | 4 (90%-100% of herbicidal efficacy or phytotoxicity) | 4 (90%-100% of herbicidal efficacy or phytotoxicity) |
| COC(=O)N(c1ccccc1CN1CC(C)(COCc2ccccc2)OC1=O)S(=O)(=O)C(F)(F)F (stereo not drawn) [Compound 1-175] | 4 (90%-100% of herbicidal efficacy or phytotoxicity) | 4 (90%-100% of herbicidal efficacy or phytotoxicity) | 4 (90%-100% of herbicidal efficacy or phytotoxicity) | 1 (1%-39% of herbicidal efficacy or phytotoxicity) | 4 (90%-100% of herbicidal efficacy or phytotoxicity) | 4 (90%-100% of herbicidal efficacy or phytotoxicity) |
| CC(C)COC(=O)N(c1ccccc1CN1CC(C)(C2OC2(C)C)OC1=O)S(=O)(=O)C(F)(F)F (stereo not drawn) [Compound 1-177] | 4 (90%-100% of herbicidal efficacy or phytotoxicity) | 4 (90%-100% of herbicidal efficacy or phytotoxicity) | 4 (90%-100% of herbicidal efficacy or phytotoxicity) | 1 (1%-39% of herbicidal efficacy or phytotoxicity) | 4 (90%-100% of herbicidal efficacy or phytotoxicity) | 4 (90%-100% of herbicidal efficacy or phytotoxicity) |
| CCC1(C)CN(Cc2ccccc2NS(=O)(=O)C(F)(F)F)C(=S)O1 (stereo not drawn) [Compound 1-180] | 4 (90%-100% of herbicidal efficacy or phytotoxicity) | 4 (90%-100% of herbicidal efficacy or phytotoxicity) | 4 (90%-100% of herbicidal efficacy or phytotoxicity) | 2 (40%-69% of herbicidal efficacy or phytotoxicity) | 4 (90%-100% of herbicidal efficacy or phytotoxicity) | 4 (90%-100% of herbicidal efficacy or phytotoxicity) |
| CCC1(C)CN(Cc2ccccc2N(C(=O)OC)S(=O)(=O)C(F)(F)F)C(=S)O1 (stereo not drawn) [Compound 1-182] | 4 (90%-100% of herbicidal efficacy or phytotoxicity) | 4 (90%-100% of herbicidal efficacy or phytotoxicity) | 4 (90%-100% of herbicidal efficacy or phytotoxicity) | 1 (1%-39% of herbicidal efficacy or phytotoxicity) | 4 (90%-100% of herbicidal efficacy or phytotoxicity) | 4 (90%-100% of herbicidal efficacy or phytotoxicity) |
| CC(C)COC(=O)N(c1ccccc1CN1C(=O)SC(C)C1=O)S(=O)(=O)C(F)(F)F (stereo not drawn) [Compound 1-200] | 4 (90%-100% of herbicidal efficacy or phytotoxicity) | 2 (40%-69% of herbicidal efficacy or phytotoxicity) | 1 (1%-39% of herbicidal efficacy or phytotoxicity) | 0 (0% of herbicidal efficacy or phytotoxicity) | 3 (70%-89% of herbicidal efficacy or phytotoxicity) | 3 (70%-89% of herbicidal efficacy or phytotoxicity) |
